Experimental data taken from the supplement of paper PMC11451515.

Columns and labels:
Conditions in all cases: 48 h
NOMO1 [1] = test: cell viability relative to DMSO control; higher = less cytotoxic
Outline: (§1)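 Library compounds in DMSO were pin-dosed into 1536-well plates (5 μl) holding NOMO1 or SEM (500 cells/well) or P12-Ichikawa (1000 cells/well) leukemia cells, across an 11-point threefold series of 47 μM to 0.79 nM. Each cell line had been adapted for at least four passages in each medium. CellTiter-Glo One luminescence was read after 48 h at 37°C. Viability is the per-plate percentage relative to DMSO wells, with cell-free wells as background.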

P12-Ichikawa [2] = test: as above
Outline: as §1

SEM cells [3] = test: as above
Outline: as §1

NOMO1 [4] = test: AUC of viability dose-response curve (% viability x log10 dose units); higher = less sensitive
Outline: (§2)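 Library compounds in DMSO were applied for 48 h at 37°C at 11 threefold doses (47 μM to 0.79 nM) to medium-adapted leukemia cells in 1536-well plates holding 500 or 1000 cells/well. Luminescence from CellTiter-Glo One was normalised plate by plate against DMSO and cell-free wells. Area under the curve came from trapezoidal integration of a log-logistic fit, after scaling curves that rose above full viability and discarding those that failed quality control. The fit had four parameters and used log10 doses.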

P12-Ichikawa [5] = test: as above
Outline: as §2

SEM cells [6] = test: as above
Outline: as §2

NC1CCC(N[C@@H]2C[C@H]2c2ccccc2)CC1 (some centres not stated)
cell viability [%]
Conditions | NOMO1 [1] | P12-Ichikawa [2] | SEM cells [3]
HPLM + 10% dialyzed FBS, 0.000781 µM | 78.6 | 87.9 | 75.5
HPLM + 10% dialyzed FBS, 0.00234 µM | 92.8 | 92.4 | 90
HPLM + 10% dialyzed FBS, 0.00702 µM | 94.8 | 94.6 | 87.5
HPLM + 10% dialyzed FBS, 0.0211 µM | 93.3 | 94.5 | 87.5
HPLM + 10% dialyzed FBS, 0.0632 µM | 94.2 | 102 | 92.9
HPLM + 10% dialyzed FBS, 0.19 µM | 108 | 102 | 92.8
HPLM + 10% dialyzed FBS, 0.569 µM | 117 | 105 | 93.7
HPLM + 10% dialyzed FBS, 1.71 µM | 108 | 99.5 | 76.4
HPLM + 10% dialyzed FBS, 5.12 µM | 107 | 106 | 83.2
HPLM + 10% dialyzed FBS, 15.4 µM | 111 | 94.7 | 82.3
HPLM + 10% dialyzed FBS, 46.1 µM | 92 | 98.5 | 81.5
RPMI 5 mM glucose + 10% FBS, 0.000781 µM | 95.3 | 92 | 120
RPMI 5 mM glucose + 10% FBS, 0.00234 µM | 88.9 | 94.6 | 126
RPMI 5 mM glucose + 10% FBS, 0.00702 µM | 101 | 106 | 114
RPMI 5 mM glucose + 10% FBS, 0.0211 µM | 104 | 102 | 115
RPMI 5 mM glucose + 10% FBS, 0.0632 µM | 101 | 102 | 119
RPMI 5 mM glucose + 10% FBS, 0.19 µM | 89.4 | 100 | 124
RPMI 5 mM glucose + 10% FBS, 0.569 µM | 94.4 | 95 | 146
RPMI 5 mM glucose + 10% FBS, 1.71 µM | 89.8 | 76.6 | 106
RPMI 5 mM glucose + 10% FBS, 5.12 µM | 94.3 | 100 | 111
RPMI 5 mM glucose + 10% FBS, 15.4 µM | 100 | 102 | 105
RPMI 5 mM glucose + 10% FBS, 46.1 µM | 93.3 | 91.2 | 98.9
RPMI 5 mM glucose + 10% dialyzed FBS, 0.000781 µM | 95.5 | 92.2 | 84.2
RPMI 5 mM glucose + 10% dialyzed FBS, 0.00234 µM | 97 | 98.1 | 98.5
RPMI 5 mM glucose + 10% dialyzed FBS, 0.00702 µM | 96 | 105 | 99.8
RPMI 5 mM glucose + 10% dialyzed FBS, 0.0211 µM | 96.8 | 99 | 96.7
RPMI 5 mM glucose + 10% dialyzed FBS, 0.0632 µM | 100 | 96.5 | 98
RPMI 5 mM glucose + 10% dialyzed FBS, 0.19 µM | 96.7 | 109 | 96.3
RPMI 5 mM glucose + 10% dialyzed FBS, 0.569 µM | 85.5 | 103 | 106
RPMI 5 mM glucose + 10% dialyzed FBS, 1.71 µM | 93.8 | 97.8 | 81.9
RPMI 5 mM glucose + 10% dialyzed FBS, 5.12 µM | 99.7 | 98.2 | 92.4
RPMI 5 mM glucose + 10% dialyzed FBS, 15.4 µM | 88 | 88.9 | 81.4
RPMI 5 mM glucose + 10% dialyzed FBS, 46.1 µM | 84 | 84 | 74

AUC of viability dose-response curve
Conditions | NOMO1 [4] | P12-Ichikawa [5] | SEM cells [6]
HPLM + 10% dialyzed FBS | 450 | 463 | 409
RPMI 5 mM glucose + 10% FBS | 456 | 461 | 444
RPMI 5 mM glucose + 10% dialyzed FBS | 450 | 467 | 441

C[C@@H]1C[C@H]2[C@@H]3\C=C(C)/C4=C/C5=C(C[C@]4(C)[C@H]3[C@@H](O)C[C@]2(C)[C@@]1(O)C(=O)COC(C)=O)C=N[N]5C6=CC=CC=C6
cell viability [%]
Conditions | NOMO1 [1] | P12-Ichikawa [2] | SEM cells [3]
HPLM + 10% dialyzed FBS, 0.000781 µM | 116 | 111 | 134
HPLM + 10% dialyzed FBS, 0.00234 µM | 123 | 107 | 120
HPLM + 10% dialyzed FBS, 0.00702 µM | 114 | 99.2 | 111
HPLM + 10% dialyzed FBS, 0.0211 µM | 113 | 91.8 | 104
HPLM + 10% dialyzed FBS, 0.0632 µM | 123 | 67.8 | 85.4
HPLM + 10% dialyzed FBS, 0.19 µM | 106 | 61.6 | 67.8
HPLM + 10% dialyzed FBS, 0.569 µM | 106 | 58.1 | 66.4
HPLM + 10% dialyzed FBS, 1.71 µM | 106 | 58.7 | 56.8
HPLM + 10% dialyzed FBS, 5.12 µM | 104 | 59.6 | 59.7
HPLM + 10% dialyzed FBS, 15.4 µM | 108 | 51.4 | 59.9
HPLM + 10% dialyzed FBS, 46.1 µM | 90 | 55.8 | 58.8
RPMI 5 mM glucose + 10% FBS, 0.000781 µM | – | 123 | –
RPMI 5 mM glucose + 10% FBS, 0.00234 µM | – | 127 | –
RPMI 5 mM glucose + 10% FBS, 0.00702 µM | – | 98 | –
RPMI 5 mM glucose + 10% FBS, 0.0211 µM | – | 85.1 | –
RPMI 5 mM glucose + 10% FBS, 0.0632 µM | – | 62.3 | –
RPMI 5 mM glucose + 10% FBS, 0.19 µM | – | 54.6 | –
RPMI 5 mM glucose + 10% FBS, 0.569 µM | – | 45.6 | –
RPMI 5 mM glucose + 10% FBS, 1.71 µM | – | 51.5 | –
RPMI 5 mM glucose + 10% FBS, 5.12 µM | – | 49.2 | –
RPMI 5 mM glucose + 10% FBS, 15.4 µM | – | 46.5 | –
RPMI 5 mM glucose + 10% FBS, 46.1 µM | – | 46.9 | –
RPMI 5 mM glucose + 10% dialyzed FBS, 0.000781 µM | 127 | 114 | 143
RPMI 5 mM glucose + 10% dialyzed FBS, 0.00234 µM | 121 | 99.7 | 117
RPMI 5 mM glucose + 10% dialyzed FBS, 0.00702 µM | 110 | 91.7 | 116
RPMI 5 mM glucose + 10% dialyzed FBS, 0.0211 µM | 122 | 72.2 | 97.7
RPMI 5 mM glucose + 10% dialyzed FBS, 0.0632 µM | 125 | 53.3 | 75
RPMI 5 mM glucose + 10% dialyzed FBS, 0.19 µM | 114 | 44.1 | 63.1
RPMI 5 mM glucose + 10% dialyzed FBS, 0.569 µM | 109 | 38 | 52.8
RPMI 5 mM glucose + 10% dialyzed FBS, 1.71 µM | 108 | 39.5 | 54.9
RPMI 5 mM glucose + 10% dialyzed FBS, 5.12 µM | 104 | 38.7 | 46.1
RPMI 5 mM glucose + 10% dialyzed FBS, 15.4 µM | 109 | 38.1 | 43.3
RPMI 5 mM glucose + 10% dialyzed FBS, 46.1 µM | 100 | 32.9 | 35.5

AUC of viability dose-response curve
Conditions | NOMO1 [4] | P12-Ichikawa [5] | SEM cells [6]
HPLM + 10% dialyzed FBS | 442 | 323 | 304
RPMI 5 mM glucose + 10% FBS | 411 | 264 | 277
RPMI 5 mM glucose + 10% dialyzed FBS | 449 | 251 | 258

Cc1ccc(C(C)(O)c2nc3ccccc3s2)c(C)c1 (configuration not stated)
cell viability [%]
Conditions | NOMO1 [1] | P12-Ichikawa [2] | SEM cells [3]
HPLM + 10% dialyzed FBS, 0.000781 µM | 88.5 | 97.8 | 75.7
HPLM + 10% dialyzed FBS, 0.00234 µM | 124 | 110 | 95.1
HPLM + 10% dialyzed FBS, 0.00702 µM | 115 | 103 | 106
HPLM + 10% dialyzed FBS, 0.0211 µM | 109 | 108 | 82.9
HPLM + 10% dialyzed FBS, 0.0632 µM | 130 | 106 | 108
HPLM + 10% dialyzed FBS, 0.19 µM | 127 | 114 | 114
HPLM + 10% dialyzed FBS, 0.569 µM | 113 | 82 | 6.4
HPLM + 10% dialyzed FBS, 1.71 µM | 132 | 109 | 76.6
HPLM + 10% dialyzed FBS, 5.12 µM | 98.3 | 79.4 | 94.2
HPLM + 10% dialyzed FBS, 15.4 µM | 55.7 | 37.5 | 62.4
HPLM + 10% dialyzed FBS, 46.1 µM | 28.8 | 10.2 | 63.5
RPMI 5 mM glucose + 10% FBS, 0.000781 µM | 95.7 | 91.2 | 91.7
RPMI 5 mM glucose + 10% FBS, 0.00234 µM | 101 | 105 | 110
RPMI 5 mM glucose + 10% FBS, 0.00702 µM | 105 | 107 | 94.2
RPMI 5 mM glucose + 10% FBS, 0.0211 µM | 113 | 111 | 102
RPMI 5 mM glucose + 10% FBS, 0.0632 µM | 105 | 100 | 107
RPMI 5 mM glucose + 10% FBS, 0.19 µM | 113 | 107 | 123
RPMI 5 mM glucose + 10% FBS, 0.569 µM | 110 | 91 | 7.03
RPMI 5 mM glucose + 10% FBS, 1.71 µM | 114 | 113 | 70.7
RPMI 5 mM glucose + 10% FBS, 5.12 µM | 116 | 70.8 | 102
RPMI 5 mM glucose + 10% FBS, 15.4 µM | 52.6 | 51.2 | 61.2
RPMI 5 mM glucose + 10% FBS, 46.1 µM | 21.1 | 8.46 | 63.2
RPMI 5 mM glucose + 10% dialyzed FBS, 0.000781 µM | 107 | 95.5 | 77.1
RPMI 5 mM glucose + 10% dialyzed FBS, 0.00234 µM | 107 | 103 | 112
RPMI 5 mM glucose + 10% dialyzed FBS, 0.00702 µM | 104 | 102 | 93.7
RPMI 5 mM glucose + 10% dialyzed FBS, 0.0211 µM | 113 | 111 | 114
RPMI 5 mM glucose + 10% dialyzed FBS, 0.0632 µM | 113 | 111 | 91.1
RPMI 5 mM glucose + 10% dialyzed FBS, 0.19 µM | 114 | 98 | 115
RPMI 5 mM glucose + 10% dialyzed FBS, 0.569 µM | 108 | 101 | 8
RPMI 5 mM glucose + 10% dialyzed FBS, 1.71 µM | 117 | 108 | 69.7
RPMI 5 mM glucose + 10% dialyzed FBS, 5.12 µM | 104 | 79 | 97.4
RPMI 5 mM glucose + 10% dialyzed FBS, 15.4 µM | 100 | 63.9 | 56.5
RPMI 5 mM glucose + 10% dialyzed FBS, 46.1 µM | 39.2 | 13.2 | 56.6

AUC of viability dose-response curve
Conditions | NOMO1 [4] | P12-Ichikawa [5] | SEM cells [6]
HPLM + 10% dialyzed FBS | 427 | 412 | 386
RPMI 5 mM glucose + 10% FBS | 433 | 415 | 387
RPMI 5 mM glucose + 10% dialyzed FBS | 457 | 426 | 386
